According to ChEMBL document CHEMBL4706545, “Antiproliferative effect of mitochondria-targeting allobetulin 1,2,3-triazolium salt derivatives and their mechanism of inducing apoptosis of cancer cells” (Eur J Med Chem, 2020):
The source made the active and inactive calls. The calls are words filed in the database; no cut-off is given here.

Key:
[1] = system: ECa-109 cell line; experiment: Induction of apoptosis in human ECa-109 cells assessed as early apoptotic cells at 1 uM incubated for 48 hrs by annexin-V-FITC and PI staining based fluorescence microscopic analysis (reference value: 0.971 %); assay type: functional
[2] = system: ECa-109 cell line; experiment: Induction of ROS-mediated apoptosis in human ECa-109 cells assessed as viable cells at 4 uM incubated for 48 hrs by annexin V-PE and 7-AAD staining based flow cytometry analysis (reference value: 92.7 %); assay type: functional; conditions: read-out: Activity
[3] = system: ECa-109 cell line; experiment: Induction of ROS-mediated apoptosis in human ECa-109 cells assessed as necrotic cells at 4 uM incubated for 48 hrs by annexin V-PE and 7-AAD staining based flow cytometry analysis (reference value: 0.729 %); assay type: functional
[4] = system: ECa-109 cell line; experiment: Induction of apoptosis in human ECa-109 cells assessed as nuclear fragmentation at 1 to 4 uM incubated for 48 hrs by Hoechst staining based fluorescence microscopic analysis; assay type: functional, cell-based; conditions: dose 1-4 µM
[5] = system: ECa-109 cell line; experiment: Induction of cell cycle arrest in human ECa-109 cells assessed as accumulation in G2/M phase at 2 uM incubated for 48 hrs by PI staining based flow cytometry analysis (reference value: 8.39 %); assay type: functional
[6] = system: ECa-109 cell line; experiment: Induction of cell cycle arrest in human ECa-109 cells assessed as accumulation in S phase at 4 uM incubated for 48 hrs by PI staining based flow cytometry analysis (reference value: 39.33 %); assay type: functional
[7] = system: ECa-109 cell line; experiment: Induction of apoptosis in human ECa-109 cells assessed as late apoptotic cells at 1 uM incubated for 48 hrs by annexin-V-FITC and PI staining based fluorescence microscopic analysis (reference value: 2.01 %); assay type: functional
[8] = system: ECa-109 cell line; experiment: Induction of ROS-mediated apoptosis in human ECa-109 cells assessed as viable cells at 2 uM incubated for 48 hrs in presence of NAC by annexin V-PE and 7-AAD staining based flow cytometry analysis (reference value: 94 %); assay type: functional; conditions: read-out: Activity
[9] = system: SGC-7901; experiment: Induction of cell cycle arrest in human SGC-7901 cells assessed as accumulation in G2/M phase at 4 uM incubated for 48 hrs by PI staining based flow cytometry analysis (reference value: 11.48 %); assay type: functional
[10] = system: SGC-7901; experiment: Induction of ROS-mediated apoptosis in human SGC-7901 cells assessed as necrotic cells at 1 uM incubated for 48 hrs by annexin V-PE and 7-AAD staining based flow cytometry analysis (reference value: 0.733 %); assay type: functional
[11] = system: SGC-7901; experiment: Induction of cell cycle arrest in human SGC-7901 cells assessed as accumulation in S phase at 1 uM incubated for 48 hrs by PI staining based flow cytometry analysis (reference value: 31.13 %); assay type: functional
[12] = system: SGC-7901; experiment: Induction of ROS-mediated apoptosis in human SGC-7901 cells assessed as necrotic cells at 2 uM incubated for 48 hrs by annexin V-PE and 7-AAD staining based flow cytometry analysis (reference value: 0.733 %); assay type: functional
[13] = system: SGC-7901; experiment: Induction of apoptosis in human SGC-7901 cells assessed as late apoptotic cells at 4 uM incubated for 48 hrs by annexin-V-FITC and PI staining based fluorescence microscopic analysis (reference value: 3.87 %); assay type: functional
[14] = system: SGC-7901; experiment: Induction of cell cycle arrest in human SGC-7901 cells assessed as accumulation in G0/G1 phase at 2 uM incubated for 48 hrs by PI staining based flow cytometry analysis (reference value: 57.39 %); assay type: functional
[15] = system: SGC-7901; experiment: Induction of ROS-mediated apoptosis in human SGC-7901 cells assessed as late apoptotic cells at 1 uM incubated for 48 hrs by annexin V-PE and 7-AAD staining based flow cytometry analysis (reference value: 3.82 %); assay type: functional
[16] = system: SGC-7901; experiment: Induction of ROS-mediated apoptosis in human SGC-7901 cells assessed as viable cells at 2 uM incubated for 48 hrs in presence of NAC by annexin V-PE and 7-AAD staining based flow cytometry analysis (reference value: 94.8 %); assay type: functional; conditions: read-out: Activity
[17] = system: SGC-7901; experiment: Induction of ROS-mediated apoptosis in human SGC-7901 cells assessed as late apoptotic cells at 2 uM incubated for 48 hrs in presence of NAC by annexin V-PE and 7-AAD staining based flow cytometry analysis (reference value: 3.45 %); assay type: functional
[18] = system: SGC-7901; experiment: Induction of ROS-mediated apoptosis in human SGC-7901 cells assessed as viable cells at 1 uM incubated for 48 hrs in presence of NAC by annexin V-PE and 7-AAD staining based flow cytometry analysis (reference value: 94.8 %); assay type: functional; conditions: read-out: Activity
[19] = system: SGC-7901; experiment: Induction of ROS-mediated apoptosis in human SGC-7901 cells assessed as late apoptotic cells at 2 uM incubated for 48 hrs by annexin V-PE and 7-AAD staining based flow cytometry analysis (reference value: 3.82 %); assay type: functional
[20] = system: SGC-7901; experiment: Induction of apoptosis in human SGC-7901 cells assessed as necrotic cells at 4 uM incubated for 48 hrs by annexin-V-FITC and PI staining based fluorescence microscopic analysis (reference value: 1.03 %); assay type: functional
[21] = system: SGC-7901; experiment: Induction of apoptosis in human SGC-7901 cells assessed as early apoptotic cells at 2 uM incubated for 48 hrs by annexin-V-FITC and PI staining based fluorescence microscopic analysis (reference value: 1.87 %); assay type: functional
[22] = system: SGC-7901; experiment: Induction of apoptosis in human SGC-7901 cells assessed as necrotic cells at 1 uM incubated for 48 hrs by annexin-V-FITC and PI staining based fluorescence microscopic analysis (reference value: 1.03 %); assay type: functional
[23] = system: SGC-7901; experiment: Induction of apoptosis in human SGC-7901 cells assessed as early apoptotic cells at 4 uM incubated for 48 hrs by annexin-V-FITC and PI staining based fluorescence microscopic analysis (reference value: 1.87 %); assay type: functional
[24] = system: SGC-7901; experiment: Induction of apoptosis in human SGC-7901 cells assessed as downregulation of Bcl-xl incubated for 48 hrs by Western blot analysis; assay type: functional, cell-based; conditions: dose 1-4 µM

COc1ccccc1Cn1n[n+](C)c2c1C(C)(C)[C@@H]1CC[C@]3(C)[C@H](CC[C@@H]4[C@H]5[C@H]6OC[C@@]5(CCC6(C)C)CC[C@]43C)[C@@]1(C)C2.[I-]
Activity [1]: 17.4%
viability at 4 µM [2]: 0.811%
Activity [3]: 2.19%
Activity [4]: Active
Activity [5]: 16.84%
Activity [6]: 43.8%
Activity [7]: 12.9%
viability at 2 µM [8]: 66.2%

C[n+]1nn(Cc2c(F)cccc2Cl)c2c1C[C@]1(C)[C@H]3CC[C@@H]4[C@H]5[C@H]6OC[C@@]5(CCC6(C)C)CC[C@@]4(C)[C@]3(C)CC[C@H]1C2(C)C.[I-]
Activity [9]: 18.35%
Activity [10]: 0.838%
Activity [11]: 14.19%
Activity [12]: 0.956%
Activity [13]: 97.3%
Activity [14]: 74.64%
Activity [15]: 4.97%
viability at 2 µM [16]: 71.3%
Activity [17]: 8.6%
viability at 1 µM [18]: 87.7%
Activity [19]: 12.3%
Activity [20]: 0.158%
Activity [21]: 25.4%
Activity [22]: 1.56%
Activity [23]: 2.07%
Activity [24]: Dose-dependent effect
